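Test compounds were applied to cells in 96-well plates for 48 hours at 5 doses. GI50: concentration for 50% inhibition of growth. TGI denotes the concentration required for complete inhibition of growth.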
Tests used:
Experiment in all cases: NCI-60 cell line screen, 48 h
[1] = test system: NCI/ADR-RES ovarian
[2] = test system: MCF7 breast
[3] = test system: HCT-116 colon
[4] = test system: SK-OV-3 ovarian
[5] = test system: NCI-H522 lung
[6] = test system: UO-31 renal
[7] = test system: CAKI-1 renal
[8] = test system: HT29 colon
[9] = test system: UACC-257 melanoma
[10] = test system: PC-3 prostate
[11] = test system: UACC-62 melanoma
[12] = test system: SK-MEL-28 melanoma
[13] = test system: A498 renal
[14] = test system: CCRF-CEM leukemia
[15] = test system: NCI-H226 lung
[16] = test system: K-562 leukemia
[17] = test system: OVCAR-4 ovarian
[18] = test system: SN12C renal
[19] = test system: IGROV1 ovarian
[20] = test system: HL-60(TB) leukemia
[21] = test system: MOLT-4 leukemia
[22] = test system: NCI-H460 lung
[23] = test system: T-47D breast
[24] = test system: MALME-3M melanoma
[25] = test system: COLO 205 colon
[26] = test system: HCT-15 colon
[27] = test system: SF-539 CNS
[28] = test system: BT-549 breast
[29] = test system: 786-0 renal
[30] = test system: RXF 393 renal
[31] = test system: MDA-MB-435
[32] = test system: SK-MEL-2 melanoma
[33] = test system: HOP-92 NSCLC
[34] = test system: TK-10 renal
[35] = test system: NCI-H23 lung
[36] = test system: HOP-62 NSCLC
[37] = test system: SW-620 colon
[38] = test system: OVCAR-8 ovarian
[39] = test system: OVCAR-3 ovarian
[40] = test system: ACHN renal
[41] = test system: KM12 colon
[42] = test system: U251 CNS
[43] = test system: RPMI-8226 leukemia
[44] = test system: OVCAR-5 ovarian
[45] = test system: SF-268 CNS
[46] = test system: SK-MEL-5 melanoma
[47] = test system: HS 578T breast
[48] = test system: SNB-19 CNS
[49] = test system: HCC-2998 colon
[50] = test system: LOX IMVI melanoma
[51] = test system: A549 NSCLC
[52] = test system: SF-295 CNS
[53] = test system: M14 melanoma
[54] = test system: DU-145 prostate
[55] = test system: SNB-75 CNS
[56] = test system: MDA-MB-231 breast
[57] = test system: EKVX NSCLC

CCN(Cc1ccccc1F)c1ccc(CO)c(Cl)c1
GI50 [1]: 15.9 µM | TGI [1]: 52.8 µM | GI50 [2]: 0.0892 µM | TGI [2]: 12.7 µM | GI50 [3]: < 0.0273 µM | TGI [3]: 11.3 µM | GI50 [4]: 4.28 µM | TGI [4]: 17.9 µM | GI50 [5]: 16.3 µM | TGI [5]: 39.1 µM | GI50 [6]: 13.2 µM | TGI [6]: 46.4 µM | GI50 [7]: 3.81 µM | TGI [7]: 39.9 µM | GI50 [8]: 3.38 µM | TGI [8]: 21.4 µM | GI50 [9]: < 0.0346 µM | TGI [9]: 0.134 µM | GI50 [10]: 18.9 µM | TGI [10]: > 62.8 µM | GI50 [11]: 0.0409 µM | TGI [11]: 0.992 µM | GI50 [12]: 13.5 µM | TGI [12]: 31.3 µM | GI50 [13]: < 0.0179 µM | TGI [13]: 0.0594 µM | GI50 [14]: 24.2 µM | TGI [14]: > 75.4 µM | GI50 [15]: 0.0137 µM | TGI [15]: 0.0511 µM | GI50 [16]: 0.535 µM | TGI [16]: > 39 µM | GI50 [17]: 0.0793 µM | TGI [17]: 5.88 µM | GI50 [18]: 13.5 µM | TGI [18]: 38.6 µM | GI50 [19]: < 0.0231 µM | GI50 [20]: 17.7 µM | TGI [20]: 47.3 µM | GI50 [21]: 22.5 µM | TGI [21]: 56.2 µM | GI50 [22]: 0.0604 µM | TGI [22]: 11 µM | GI50 [23]: < 0.0213 µM | TGI [23]: 0.177 µM | GI50 [24]: 17.7 µM | TGI [24]: 39.5 µM | GI50 [25]: 2.45 µM | TGI [25]: 7.86 µM | GI50 [26]: 11.5 µM | TGI [26]: 47.2 µM | GI50 [27]: 16.8 µM | TGI [27]: 34.5 µM | GI50 [28]: 15.8 µM | TGI [28]: 30.6 µM | GI50 [29]: 15.9 µM | TGI [29]: 41 µM | GI50 [30]: 4.35 µM | TGI [30]: 24.8 µM | GI50 [31]: 17.2 µM | TGI [31]: 40.2 µM | GI50 [32]: 1.81 µM | TGI [32]: 19.9 µM | GI50 [33]: 0.301 µM | TGI [33]: 8.72 µM | GI50 [34]: < 0.0201 µM | TGI [34]: 0.0651 µM | GI50 [35]: 14.6 µM | TGI [35]: 57.1 µM | GI50 [36]: 1.34 µM | TGI [36]: 17.8 µM | GI50 [37]: 0.49 µM | TGI [37]: > 46.5 µM | GI50 [38]: 13.2 µM | TGI [38]: > 57 µM | GI50 [39]: 0.176 µM | TGI [39]: 1.5 µM | GI50 [40]: 19.2 µM | TGI [40]: > 53.4 µM | GI50 [41]: 18.5 µM | TGI [41]: 47.7 µM | GI50 [42]: 0.256 µM | TGI [42]: 24.2 µM | GI50 [43]: 0.796 µM | TGI [43]: 22.8 µM | GI50 [44]: 0.0428 µM | TGI [44]: 0.234 µM | GI50 [45]: 26.6 µM | TGI [45]: > 60.7 µM | GI50 [46]: 2.66 µM | TGI [46]: 21.1 µM | GI50 [47]: 26.5 µM | TGI [47]: > 66.4 µM | GI50 [48]: 28.4 µM | TGI [48]: > 94.6 µM | GI50 [49]: 8.41 µM | TGI [49]: 25 µM | GI50 [50]: 20.3 µM | TGI [50]: 44.2 µM | GI50 [51]: 1.03 µM | TGI [51]: 21.8 µM | GI50 [52]: 0.7 µM | TGI [52]: 17.2 µM | GI50 [53]: 19.9 µM | TGI [53]: 41.7 µM | GI50 [54]: 18.4 µM | TGI [54]: > 60 µM | GI50 [55]: 11 µM | TGI [55]: 46.4 µM | GI50 [56]: 16.3 µM | TGI [56]: 41.7 µM

CCOC(=O)C1=C(C)N=C2SC=C(c3ccccc3)N2[C@H]1c1cn[nH]c1-c1ccc(Cl)cc1
GI50 [1]: 5.97 µM | TGI [1]: 27.6 µM | GI50 [2]: 2.7 µM | TGI [2]: 13.8 µM | GI50 [3]: 3.11 µM | TGI [3]: 13.3 µM | GI50 [4]: 7.39 µM | TGI [4]: 20.1 µM | GI50 [5]: 1.68 µM | TGI [5]: 3.44 µM | GI50 [6]: 1.39 µM | TGI [6]: 9.53 µM | GI50 [7]: 1.76 µM | TGI [7]: 3.56 µM | GI50 [8]: 4.32 µM | TGI [8]: 13.7 µM | GI50 [9]: 10.1 µM | TGI [9]: 24.1 µM | GI50 [10]: 3.98 µM | TGI [10]: 17.3 µM | GI50 [11]: 2.85 µM | TGI [11]: 12.5 µM | GI50 [12]: 4.92 µM | TGI [12]: 16.8 µM | GI50 [13]: 5.37 µM | TGI [13]: 18.2 µM | GI50 [14]: 3.12 µM | TGI [14]: 14 µM | GI50 [15]: 8.25 µM | TGI [15]: 46.1 µM | GI50 [16]: 3.67 µM | TGI [16]: 23.2 µM | GI50 [17]: 4.66 µM | TGI [17]: 16.6 µM | GI50 [18]: 4.51 µM | TGI [18]: 17.3 µM | GI50 [19]: 2.33 µM | TGI [19]: 7.61 µM | GI50 [20]: 2.85 µM | TGI [20]: 7.98 µM | GI50 [21]: 2.29 µM | TGI [21]: 7.41 µM | GI50 [22]: 3.36 µM | TGI [22]: 12.7 µM | GI50 [23]: 3.13 µM | TGI [23]: 22.4 µM | GI50 [24]: 1.6 µM | TGI [24]: 3.45 µM | GI50 [25]: 3.53 µM | TGI [25]: 15.1 µM | GI50 [26]: 3.19 µM | TGI [26]: 11.7 µM | GI50 [27]: 5.68 µM | TGI [27]: 18 µM | GI50 [28]: 3.84 µM | TGI [28]: 13.9 µM | GI50 [29]: 5.2 µM | TGI [29]: 17 µM | GI50 [30]: 5.32 µM | TGI [30]: 19.1 µM | GI50 [31]: 4.07 µM | TGI [31]: 15.2 µM | GI50 [32]: 6.21 µM | TGI [32]: 19.3 µM | GI50 [33]: 2.4 µM | TGI [33]: 8.7 µM | GI50 [34]: 10.2 µM | TGI [34]: 22.2 µM | GI50 [35]: 4.64 µM | TGI [35]: 19.6 µM | GI50 [36]: 7.09 µM | TGI [36]: 22 µM | GI50 [37]: 3.84 µM | TGI [37]: 14.4 µM | GI50 [38]: 4.46 µM | TGI [38]: 19.6 µM | GI50 [39]: 3.21 µM | TGI [39]: 12 µM | GI50 [40]: 3.03 µM | TGI [40]: 11.7 µM | GI50 [41]: 4.69 µM | TGI [41]: 17.5 µM | GI50 [57]: 7.68 µM | TGI [57]: 22.3 µM | GI50 [42]: 3.8 µM | TGI [42]: 16.4 µM | GI50 [43]: 2.65 µM | TGI [43]: 9.39 µM | GI50 [44]: 6.06 µM | TGI [44]: 19.9 µM | GI50 [45]: 3.65 µM | TGI [45]: 16.6 µM | GI50 [46]: 3.22 µM | TGI [46]: 12 µM | GI50 [47]: 3.68 µM | TGI [47]: 34.5 µM | GI50 [48]: 7.65 µM | TGI [48]: 20.7 µM | GI50 [49]: 6.24 µM | TGI [49]: 20.4 µM | GI50 [50]: 1.46 µM | TGI [50]: 3.43 µM | GI50 [51]: 6.73 µM | TGI [51]: 24.7 µM | GI50 [52]: 7.96 µM | TGI [52]: 22.2 µM | GI50 [53]: 4.37 µM | TGI [53]: 19.2 µM | GI50 [54]: 6.12 µM | TGI [54]: 18.8 µM | GI50 [55]: 5.05 µM | TGI [55]: 18.3 µM | GI50 [56]: 2.32 µM | TGI [56]: 7.96 µM
